Laboratory results as given in PubChem BioAssay AID248 (DTP/NCI, 2004).
“And” between values parts separate entries of the source, which are not always exact repeats. Equal entries are not always repeated. Inconclusive results and toxic doses are left out. No stated cut-off is given here; in the data, active means T/C of 150% or more; inactive means T/C below 125%.

Test system: L1210 leukemia ip in BDF1 mice, survival T/C
Experiment: NCI In Vivo Anticancer Drug Screen. Data for tumor model L1210 Leukemia (intraperitoneal) in B6D2F1 (BDF1) mice
Settings: endpoint: mean survival time, higher = longer survival
Summary of the method: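 Ratio derived from survival: compound-dosed mice over vehicle-dosed mice, all bearing a transplantable tumor.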

[1] = dose: 100.0 mg/kg/injection, schedule: Q01DX001 (ip), vehicle: saline
[2] = dose: 200.0 mg/kg/injection, schedule: Q01DX001 (ip), vehicle: saline
[3] = dose: 400.0 mg/kg/injection, schedule: Q01DX001 (ip), vehicle: saline
[4] = dose: 100.0 mg/kg/injection, schedule: Q04DX003 (ip), vehicle: saline
[5] = dose: 200.0 mg/kg/injection, schedule: Q04DX003 (ip), vehicle: saline
[6] = dose: 400.0 mg/kg/injection, schedule: Q04DX003 (ip), vehicle: saline
[7] = dose: 100.0 mg/kg/injection, schedule: Q01DX009 (ip), vehicle: saline with Tween-80
[8] = dose: 100.0 mg/kg/injection, schedule: Q04DX002 (ip), vehicle: saline with Tween-80
[9] = dose: 200.0 mg/kg/injection, schedule: Q01DX009 (ip), vehicle: saline with Tween-80
[10] = dose: 200.0 mg/kg/injection, schedule: Q04DX002 (ip), vehicle: saline with Tween-80
[11] = dose: 400.0 mg/kg/injection, schedule: Q01DX009 (ip), vehicle: saline with Tween-80
[12] = dose: 400.0 mg/kg/injection, schedule: Q04DX002 (ip), vehicle: saline with Tween-80
[13] = dose: 100.0 mg/kg/injection, schedule: Q01DX001 (ip), vehicle: carboxymethylcellulose (CMC)
[14] = dose: 200.0 mg/kg/injection, schedule: Q01DX001 (ip), vehicle: carboxymethylcellulose (CMC)
[15] = dose: 400.0 mg/kg/injection, schedule: Q01DX001 (ip), vehicle: carboxymethylcellulose (CMC)
[16] = dose: 50.0 mg/kg/injection, schedule: Q01DX009 (ip), vehicle: saline with Tween-80
[17] = dose: 100.0 mg/kg/injection, schedule: Q04DX003 (ip), vehicle: Klucel (hydroxypropylcellulose) (HPC)
[18] = dose: 200.0 mg/kg/injection, schedule: Q04DX003 (ip), vehicle: Klucel (hydroxypropylcellulose) (HPC)
[19] = dose: 400.0 mg/kg/injection, schedule: Q04DX003 (ip), vehicle: Klucel (hydroxypropylcellulose) (HPC)
[20] = dose: 100.0 mg/kg/injection, schedule: Q04DX002 (ip), vehicle: Klucel (hydroxypropylcellulose) (HPC)
[21] = dose: 200.0 mg/kg/injection, schedule: Q04DX002 (ip), vehicle: Klucel (hydroxypropylcellulose) (HPC)
[22] = dose: 75.0 mg/kg/injection, schedule: Q01DX001 (ip), vehicle: saline
[23] = dose: 150.0 mg/kg/injection, schedule: Q01DX001 (ip), vehicle: saline
[24] = dose: 300.0 mg/kg/injection, schedule: Q01DX001 (ip), vehicle: saline
[25] = dose: 50.0 mg/kg/injection, schedule: Q01DX009 (ip), vehicle: Klucel (hydroxypropylcellulose) (HPC)
[26] = dose: 100.0 mg/kg/injection, schedule: Q01DX009 (ip), vehicle: saline
[27] = dose: 100.0 mg/kg/injection, schedule: Q04DX003 (ip), vehicle: saline with Tween-80
[28] = dose: 200.0 mg/kg/injection, schedule: Q04DX003 (ip), vehicle: saline with Tween-80
[29] = dose: 400.0 mg/kg/injection, schedule: Q04DX003 (ip), vehicle: saline with Tween-80

Measured: T/C

CCOC(=O)CC(=O)OCC
inactive: [1] 93 % of control | [2] 93 % of control | [3] 90 % of control

O=C(OCCO)c1ccccc1O
inactive: dose: 75.0 mg/kg/injection, schedule: Q01DX009 (ip), vehicle: saline sonified 102 % of control | [4] 102 % of control | dose: 150.0 mg/kg/injection, schedule: Q01DX009 (ip), vehicle: saline sonified 116 % of control | [5] 98 % of control | dose: 300.0 mg/kg/injection, schedule: Q01DX009 (ip), vehicle: saline sonified 108 % of control | [6] 102 % of control

CC[As](=O)(O)c1ccc([N+](=O)[O-])cc1
inactive: dose: 100.0 mg/kg/injection, schedule: Q01DX001 (ip), vehicle: saline with Tween-80 101 % of control

Cc1ccc(C(=O)c2ccccc2C(=O)O)cc1C
inactive: [7] 90 % of control | [8] 93 % of control | [9] 93 % of control | [10] 114 % of control | [11] 87 % of control | [12] 101 % of control

CC(CC(=O)c1ccc(F)cc1)N1CCN(c2ccccc2)CC1 (stereo not drawn)
inactive: [13] 103 % of control | [14] 90 % of control | [15] 90 % of control

COc1ccc(C)cc1NC(=O)OCCOc1ccc(C(C)(C)C)cc1
inactive: [16] 90 % of control | [7] 90 % of control | [9] 90 % of control

Cc1[nH]c(=O)[nH]c(=O)c1S(=O)(=O)O
inactive: [17] 98 % of control | [18] 93 % of control | [19] 98 % of control

N#Cc1ccc(/C=N\NC(=O)CCCC(=O)N/N=C/c2ccc(C#N)cc2)cc1
inactive: dose: 50.0 mg/kg/injection, schedule: Q01DX001 (ip), vehicle: other 91 % of control | dose: 100.0 mg/kg/injection, schedule: Q01DX001 (ip), vehicle: other 91 % of control | dose: 400.0 mg/kg/injection, schedule: Q01DX001 (ip), vehicle: other 91 % of control

O=C(O)c1cc(Cl)c(Br)c(Cl)c1
inactive: [20] 100 % of control | [21] 107 % of control

CC1(C(Cl)Cl)C=CC=CC1=O (stereo not drawn)
inactive: dose: 100.0 mg/kg/injection, schedule: Q01DX001 (ip), vehicle: Klucel (hydroxypropylcellulose) (HPC) 102 % of control | dose: 200.0 mg/kg/injection, schedule: Q01DX001 (ip), vehicle: Klucel (hydroxypropylcellulose) (HPC) 106 % of control | dose: 400.0 mg/kg/injection, schedule: Q01DX001 (ip), vehicle: Klucel (hydroxypropylcellulose) (HPC) 104 % of control

CCCCC1(CCC)C(=O)NC(=O)NC1=O
inactive: [22] 102 % of control | [23] 96 % of control | [24] 95 % of control

CCOP(=O)(OCC)OC(C)CC (stereo not drawn)
inactive: [8] 109 % of control | [10] 103 % of control | [12] 106 % of control

NCCCCC(=O)NC(CCCCNC(=O)OCc1ccccc1)C(=O)NCCCCC(=O)NC(CCCCNC(=O)OCc1ccccc1)C(=O)NCCCCC(=O)NC(CCCCNC(=O)OCc1ccccc1)C(=O)NCCCCC(=O)NC(CCCCNC(=O)OCc1ccccc1)C(=O)NCCCCC(=O)NC(CCCCNC(=O)OCc1ccccc1)C(=O)O (stereo not drawn)
inactive: [1] 90 % of control

O=C(O)C(Cc1ccccc1)C(=O)O.[NH2-].[NH2-].[Pt+2]
inactive: dose: 25.0 mg/kg/injection, schedule: Q04DX003 (ip), vehicle: Klucel (hydroxypropylcellulose) (HPC) 102 % of control | dose: 50.0 mg/kg/injection, schedule: Q04DX003 (ip), vehicle: Klucel (hydroxypropylcellulose) (HPC) 98 % of control | [17] 119 % of control | [18] 104 % of control

CC(=O)Oc1cc2c(cc1N=NN(C)C)[C@H]1CC[C@]3(C)[C@@H](O)CC[C@H]3[C@@H]1CC2
inactive: [25] 95 % of control

CC1(C)COC(c2ccc3c(c2)OCO3)OC1
inactive: [13] 96 % of control | [14] 97 % of control | [15] 94 % of control

CCCC(C)C1(CCC)C(=O)NC(=S)NC1=O (stereo not drawn)
inactive: [22] 94 % of control | [23] 98 % of control | [24] 92 % of control

O=C(/C=C/c1ccc([N+](=O)[O-])s1)c1cccc([N+](=O)[O-])c1
inactive: [20] 91 % of control | [21] 100 % of control | dose: 400.0 mg/kg/injection, schedule: Q04DX002 (ip), vehicle: Klucel (hydroxypropylcellulose) (HPC) 100 % of control

CCC(/C=C1\[Se]c2ccc(C)cc2N1CC)=C\c1[se]c2ccc(C)cc2[n+]1CC
inactive: dose: 2.0 mg/kg/injection, schedule: Q01DX001 (ip), vehicle: other 103 % of control | dose: 4.0 mg/kg/injection, schedule: Q01DX001 (ip), vehicle: other 101 % of control

CCN(C(=O)CCl)c1ccccc1C
inactive: [16] 91 % of control | [7] 100 % of control

Nc1ccc2ccc(O)cc2c1
inactive: [5] 121 % of control

O=C(CCCl)N1CCN(C(=O)CCCl)c2ccccc21
inactive: [13] 103 % of control | [14] 96 % of control | [15] 96 % of control

C/C(=C\Br)CBr
inactive: dose: 100.0 mg/kg/injection, schedule: Q01DX009 (ip), vehicle: acetone 97 % of control

CN(C)CNC=O
inactive: dose: 25.0 mg/kg/injection, schedule: Q01DX009 (ip), vehicle: saline 86 % of control | dose: 50.0 mg/kg/injection, schedule: Q01DX009 (ip), vehicle: saline 96 % of control | [26] 96 % of control and 99 % of control | [4] 103 % of control | [5] 106 % of control | [6] 97 % of control

CCOC(=O)c1cc(C)n(-c2ccc(-c3ccc(-n4c(C)cc(C(=O)OCC)c4C)c(C)c3)cc2C)c1C
inactive: [17] 98 % of control | [18] 101 % of control | [19] 93 % of control

Nc1nc[nH]c(=O)c1NC=O
inactive: [26] 94 % of control | [27] 97 % of control | dose: 200.0 mg/kg/injection, schedule: Q01DX009 (ip), vehicle: saline 100 % of control | [28] 98 % of control | dose: 400.0 mg/kg/injection, schedule: Q01DX009 (ip), vehicle: saline 104 % of control | [29] 101 % of control

Cc1ccccc1N1C(N)=NC(N)=NC1(C)C
inactive: dose: 6.25 mg/kg/injection, schedule: Q01DX009 (ip), vehicle: Klucel (hydroxypropylcellulose) (HPC) 89 % of control | dose: 12.5 mg/kg/injection, schedule: Q01DX009 (ip), vehicle: Klucel (hydroxypropylcellulose) (HPC) 91 % of control | dose: 25.0 mg/kg/injection, schedule: Q01DX009 (ip), vehicle: Klucel (hydroxypropylcellulose) (HPC) 100 % of control | [25] 96 % of control | [22] 103 % of control

CC(=O)Nc1ccc(/C=C/C(=O)c2ccc([N+](=O)[O-])cc2)cc1
inactive: [7] 94 % of control | [27] 91 % of control | [9] 94 % of control | [28] 94 % of control | [11] 94 % of control | [29] 90 % of control

CCCCCCC(N)C(=O)O (stereo not drawn)
inactive: dose: 25.0 mg/kg/injection, schedule: Q04DX002 (ip), vehicle: Klucel (hydroxypropylcellulose) (HPC) 95 % of control | dose: 50.0 mg/kg/injection, schedule: Q04DX002 (ip), vehicle: Klucel (hydroxypropylcellulose) (HPC) 104 % of control | [20] 100 % of control | [17] 96 % of control | [18] 100 % of control | [19] 103 % of control

COC1OCC(Cl)C(Cl)C1O (stereo not drawn)
inactive: dose: 50.0 mg/kg/injection, schedule: Q04DX002 (ip), vehicle: saline 110 % of control | dose: 100.0 mg/kg/injection, schedule: Q04DX002 (ip), vehicle: saline 100 % of control | dose: 200.0 mg/kg/injection, schedule: Q04DX002 (ip), vehicle: saline 100 % of control

CC1CC([O-])=N/[N+]1=C\c1ccccc1 (stereo not drawn)
inactive: [1] 97 % of control | [7] 96 % of control | [2] 95 % of control | [9] 87 % of control | [3] 97 % of control
